In brackets after ≈: the same amount, converted by molar mass. Values belong to the compound of their own block, whether it stands above or below them.
Legend:
Experiment in all cases: ≥ marks a high value that may be exact or a test limit, other limits are often not marked, values filed in µg/mL are converted to µM
[1] = system: Escherichia coli ATCC 25922
Pseudomonas aeruginosa = system: Pseudomonas aeruginosa
Serratia marcescens = system: Serratia marcescens
Klebsiella pneumoniae = system: Klebsiella pneumoniae
Klebsiella aerogenes = system: Klebsiella aerogenes
Enterobacter cloacae = system: Enterobacter cloacae
Escherichia coli P4 = system: Escherichia coli P4
[2] = system: Staphylococcus aureus ATCC 29213
Escherichia coli = system: Escherichia coli
[3] = system: Shigella dysenteriae CMCC 51302
[4] = system: Salmonella typhimurium CMCC 50013
[5] = system: Listeria monocytogenes CMCC 54002
[6] = system: Streptococcus pyogenes ATCC 12344
Streptococcus mutans = system: Streptococcus mutans
[7] = system: Cryptococcus neoformans ATCC 90012
[8] = system: Candida parapsilosis ATCC 22019
[9] = system: Pseudomonas aeruginosa ATCC 27853
[10] = system: Candida albicans ATCC 90028
Candida krusei ATCC 6258 = system: Candida krusei ATCC 6258
[11] = system: Listeria monocytogenes ATCC 35152
[12] = system: Staphylococcus aureus ATCC 25923
[13] = system: Klebsiella pneumoniae ATCC 13883
Acinetobacter sp. = system: Acinetobacter sp.
[14] = system: Pseudomonas aeruginosa ATCC 25668
[15] = system: Staphylococcus aureus ATCC 9144
[16] = system: Bacillus subtilis ATCC 6633
[17] = system: Pseudomonas aeruginosa Pa1409
[18] = system: Acinetobacter baumannii NM124
[19] = system: Acinetobacter baumannii Ab1408
[20] = system: Acinetobacter baumannii NM75
[21] = system: Acinetobacter baumannii Ab5753
[22] = system: Escherichia coli ATCC 25726
Acinetobacter baumannii = system: Acinetobacter baumannii
[23] = system: Pseudomonas aeruginosa Pa4216
[24] = system: Acinetobacter baumannii NM35
[25] = system: Staphylococcus aureus Sa1390
[26] = system: Acinetobacter baumannii NM109
[27] = system: Acinetobacter baumannii NM8
[28] = system: Acinetobacter baumannii Ab5755
Escherichia coli Ec513 = system: Escherichia coli Ec513

Compound: CC(C)C[C@H](NC(=O)CN)C(=O)N[C@@H](Cc1ccccc1)C(=O)N[C@@H](CCCN=C(N)N)C(=O)N[C@@H](C)C(=O)N[C@@H](CC(C)C)C(=O)N[C@@H](CC(C)C)C(=O)N[C@@H](CCCN=C(N)N)C(=O)N[C@@H](CC(C)C)C(=O)N[C@@H](CC(C)C)C(=O)N[C@@H](CCCN=C(N)N)C(=O)N[C@@H](CO)C(=O)N[C@@H](CC(C)C)C(=O)N[C@@H](Cc1c[nH]c2ccccc12)C(=O)N[C@@H](CCCN=C(N)N)C(=O)N[C@@H](CC(C)C)C(=O)N[C@@H](CC(C)C)C(=O)N[C@@H](CC(C)C)C(=O)N[C@@H](CCCN=C(N)N)C(=O)N[C@@H](C)C(=O)O [GLFRALLRLLRSLWRLLLRA]
MIC [1]: > 64 µM | MIC [3]: ≥ 64 µM | MIC [4]: ≥ 64 µM | MIC [5]: ≥ 64 µM | MIC [6]: ≥ 64 µM | MIC [2]: > 64 µM | MIC (Streptococcus mutans): ≥ 64 µM

Compound: CC[C@H](C)[C@H](NC(=O)CN)C(=O)N[C@@H](Cc1c[nH]c2ccccc12)C(=O)N[C@@H](CCCCN)C(=O)N[C@H](C(=O)N[C@H](C(=O)N[C@@H](CCCCN)C(=O)N[C@@H](CO)C(=O)N[C@@H](CCSC)C(=O)NCC(=O)N[C@@H](CCCCN)C(=O)N[C@H](C(=O)N[C@@H](Cc1ccccc1)C(=O)N[C@@H](C)C(=O)NCC(=O)N[C@@H](CCCCN)C(=O)N[C@H](C(=O)N[C@@H](CC(C)C)C(=O)N[C@@H](CCC(N)=O)C(=O)N[C@@H](CC(N)=O)C(=O)N[C@@H](CC(C)C)C(N)=O)[C@@H](C)CC)C(C)C)[C@@H](C)CC)[C@@H](C)O [GIWKTIKSMGKVFAGKILQNL]
MIC [17]: 13.7 µM (≈ 32 µg/mL) | MIC [18]: 1.5 µM (≈ 3.5 µg/mL) | MIC [19]: 6.86 µM (≈ 16 µg/mL) | MIC [20]: 3 µM (≈ 7 µg/mL) | MIC [21]: 3.43 µM (≈ 8 µg/mL) | MIC [12]: 12.5 µM (≈ 29.1 µg/mL) | MIC [22]: 6.25 µM (≈ 14.6 µg/mL) | MIC (Acinetobacter baumannii): 6.25 µM (≈ 14.6 µg/mL) | MIC [23]: 13.7 µM (≈ 32 µg/mL) | MIC [24]: 3 µM (≈ 7 µg/mL) | MIC [25]: 6.86 µM (≈ 16 µg/mL) | MIC [26]: 1.5 µM (≈ 3.5 µg/mL) | MIC [27]: 3 µM (≈ 7 µg/mL) | MIC [28]: 1.71 µM (≈ 4 µg/mL) | MIC (Escherichia coli Ec513): 3.43 µM (≈ 8 µg/mL) | MIC [10]: 6 µM (≈ 14 µg/mL)

Results, then the compound that gave them:

MIC [1]: 55.4 µM (≈ 181 µg/mL) | MIC (Pseudomonas aeruginosa): > 78.4 µM | MIC (Serratia marcescens): ≥ 157 µM | MIC (Klebsiella pneumoniae): > 78.4 µM | MIC (Klebsiella aerogenes): ≥ 78.4 µM | MIC (Enterobacter cloacae): ≥ 78.4 µM | MIC (Escherichia coli P4): ≥ 55.4 µM | MIC [2]: 55.4 µM (≈ 181 µg/mL) | MIC (Escherichia coli): 78.4 µM (≈ 256 µg/mL)
Compound: CC[C@H](C)[C@H](NC(=O)[C@H](Cc1cnc[nH]1)NC(=O)[C@@H](NC(=O)[C@H](CCCN=C(N)N)NC(=O)[C@@H](N)C(C)C)[C@@H](C)CC)C(=O)N[C@@H](CO)C(=O)NCC(=O)N[C@@H](CO)C(=O)N[C@@H](CO)C(=O)N[C@@H](CC(C)C)C(=O)NCC(=O)N[C@@H](Cc1c[nH]c2ccccc12)C(=O)N[C@@H](CC(C)C)C(=O)N[C@H](C(=O)N[C@@H](CCC(N)=O)C(=O)N[C@@H](CC(C)C)C(=O)N[C@@H](Cc1ccccc1)C(=O)N[C@@H](CCCN=C(N)N)C(=O)N[C@@H](CCCCN)C(=O)N[C@@H](CCCN=C(N)N)C(=O)N[C@H](C(=O)N[C@@H](CCC(=O)O)C(=O)N[C@@H](CO)C(=O)N[C@@H](CC(C)C)C(=O)N[C@@H](CC(C)C)C(=O)N[C@@H](CCC(N)=O)C(=O)N[C@@H](CCCCN)C(=O)N[C@@H](CO)C(=O)O)[C@@H](C)CC)[C@@H](C)CC [VRIHISGSSLGWLIQLFRKRIESLLQKS]

MIC [1]: 8 µM (≈ 18.4 µg/mL) | MIC [7]: 31 µM (≈ 71.4 µg/mL) | MIC [8]: 31 µM (≈ 71.4 µg/mL) | MIC [9]: 32 µM (≈ 73.8 µg/mL) | MIC [10]: 16 µM (≈ 36.9 µg/mL) | MIC (Candida krusei ATCC 6258): 31 µM (≈ 71.4 µg/mL)
Compound: CC[C@H](C)[C@H](NC(=O)[C@H](Cc1ccccc1)NC(=O)[C@H](CC(N)=O)NC(=O)[C@H](CCCCN)NC(=O)[C@H](C)NC(=O)[C@@H](NC(=O)[C@H](CC(N)=O)NC(=O)[C@H](Cc1ccccc1)NC(=O)[C@H](C)NC(=O)[C@H](C)NC(=O)[C@H](CCCCN)NC(=O)CNC(=O)[C@H](CCCCN)NC(=O)[C@H](CCCCN)NC(=O)[C@H](CCCCN)NC(=O)[C@H](C)NC(=O)[C@@H](NC(=O)[C@H](CC(=O)O)NC(=O)[C@H](CC(C)C)NC(=O)[C@H](Cc1c[nH]c2ccccc12)NC(=O)CN)C(C)C)C(C)C)C(N)=O [GWLDVAKKKGKAAFNVAKNFI]

MIC [1]: 10.8 µM (≈ 15 µg/mL) | MIC [11]: 10.8 µM (≈ 15 µg/mL) | MIC [12]: 7.22 µM (≈ 9.99 µg/mL) | MIC [13]: 18 µM (≈ 25 µg/mL) | MIC [9]: 14.4 µM (≈ 20 µg/mL)
Compound: CC(C)C[C@H](NC(=O)[C@H](CCCN=C(N)N)NC(=O)[C@H](CCCCN)NC(=O)[C@@H](N)Cc1c[nH]c2ccccc12)C(=O)N[C@H](C(=O)N[C@@H](C)C(=O)N[C@@H](C)C(=O)N[C@@H](CO)C(=O)N[C@@H](C)C(=O)N[C@@H](CCCCN)C(=O)N[C@@H](CCCCN)C(=O)N[C@@H](CCCCN)C(N)=O)C(C)C [WKRLVAASAKKK]

MIC (Acinetobacter sp.): ≥ 46.1 µM | MIC [14]: ≥ 368 µM | MIC [15]: ≥ 368 µM | MIC [16]: ≥ 368 µM | MIC (Escherichia coli): 368 µM (≈ 512 µg/mL)
Compound: CC[C@H](C)[C@H](N)C(=O)N[C@@H](CCCCN)C(=O)N1CCC[C@H]1C(=O)N[C@@H](C)C(=O)NCC(=O)N[C@@H](CCCCN)C(=O)N[C@@H](CC(C)C)C(=O)N[C@@H](Cc1ccccc1)C(=O)N[C@@H](CCCCN)C(=O)N[C@@H](CC(C)C)C(=O)N[C@@H](Cc1ccccc1)C(=O)N[C@@H](CCCCN)C(N)=O [IKPAGKLFKLFK]

From DBAASP
